The source of these data is PubChem BioAssay AID434951 (Broad Institute, 2010).

Usually EC50 stands for the concentration giving half of the maximal effect.

Structures are written as SMILES. The source made the active and inactive calls.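 The calls were made as follows: active = a fitted half-maximal concentration EC50 for the rise in nuclear signal no higher than ten times the top dose tested; inconclusive = flat fit with activity between 30% and 70%, or unusable fit; inactive = EC50 beyond ten times the top dose.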

For this experiment, the target named is Hypoxia-inducible factor 1-alpha (Homo sapiens) (UniProt Q16665). Put plainly: HIF pathway activation, GFP-HIF1alpha translocation – imaging, fluorescence, U2OS GFP-HIF1alpha, confirmation (AID 434951). As to conditions: U2OS GFP-HIF1alpha nuclear intensity, high-content imaging.
Chain of Hypoxia-inducible factor 1-alpha (Homo sapiens) (Q16665 whole entry, looked up): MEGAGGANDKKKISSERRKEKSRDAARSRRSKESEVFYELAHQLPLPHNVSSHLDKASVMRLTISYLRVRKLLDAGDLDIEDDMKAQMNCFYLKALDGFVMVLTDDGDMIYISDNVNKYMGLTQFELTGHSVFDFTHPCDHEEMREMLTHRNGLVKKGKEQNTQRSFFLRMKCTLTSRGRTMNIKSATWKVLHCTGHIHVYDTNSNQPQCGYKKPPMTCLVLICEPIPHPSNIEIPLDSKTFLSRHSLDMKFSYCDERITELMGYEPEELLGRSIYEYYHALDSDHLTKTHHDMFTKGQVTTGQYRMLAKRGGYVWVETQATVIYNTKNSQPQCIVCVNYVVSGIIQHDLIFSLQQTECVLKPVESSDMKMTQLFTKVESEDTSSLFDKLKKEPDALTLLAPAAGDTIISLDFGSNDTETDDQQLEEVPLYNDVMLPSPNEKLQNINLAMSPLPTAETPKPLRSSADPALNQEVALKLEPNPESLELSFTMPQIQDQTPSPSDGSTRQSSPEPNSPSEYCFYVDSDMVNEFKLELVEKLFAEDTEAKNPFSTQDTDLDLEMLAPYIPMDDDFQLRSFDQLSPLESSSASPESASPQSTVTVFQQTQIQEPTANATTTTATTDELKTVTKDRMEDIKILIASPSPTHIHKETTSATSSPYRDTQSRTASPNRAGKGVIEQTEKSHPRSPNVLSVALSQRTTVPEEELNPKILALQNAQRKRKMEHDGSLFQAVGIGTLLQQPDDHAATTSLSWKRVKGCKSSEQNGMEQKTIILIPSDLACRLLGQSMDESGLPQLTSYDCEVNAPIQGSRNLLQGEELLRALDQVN
For the molecule `O=C(c1cccc(C(F)(F)F)c1)C1CCCN(C(=O)Cn2cncn2)C1` (stereo not given), the EC50 is > 35 µM (inactive).

With `CC(=O)NC(c1ccc(C(C)C)cc1)c1ccc2cccnc2c1O` (stereo not given), the EC50 is 1.33 µM.

For the molecule `CCC(C)c1ccc2oc(-c3ccc(NC(=O)Cn4cnc5c(=O)n(C)c(=O)n(C)c54)cc3)nc2c1` (stereo not given), the concentration for a half-maximal effect (EC50) is 6.07 µM.

`CCOC(=O)c1sc(Nc2cccc(Cl)c2)nc1C`: the EC50 was > 35 µM (inactive).

For the molecule `COc1ccc(C(=O)C2CCCN(C(=O)C3CCOCC3)C2)cc1OC` (stereo not given), the EC50 was > 35 µM (inactive).

As for `CCCN(CCC)C(=S)Nc1cc(C(=O)OC)ccc1C(=O)OC`, the EC50 is > 35 µM (inactive).

As for `CC(C)c1nc(CNC(=O)CCc2nnc(-c3ccsc3)o2)cs1`, the EC50 was > 35 µM (inactive).

As for `CCOC(=O)C(=Cc1ccc(OCc2ccc([N+](=O)[O-])cc2)c(OC)c1)C(=O)OCC`, the EC50 was 7.32 µM.

As for `O=C(Cn1c(SCC(=O)N2CCCc3ccccc32)nc2ccccc21)N1CCCC1`, the EC50 was > 35 µM (inactive).

Regarding `O=C(C1=NN[C@@H]2C(=O)N(c3cccc(C(F)(F)F)c3)C(=O)[C@H]12)C(c1ccccc1)c1ccccc1`, the EC50 was > 35 µM (inactive).

As for `Cc1cc(S(=O)(=O)ON2C(=O)c3ccccc3C2=O)ccc1F`, the EC50 is 6.21 µM.

In the case of `CNNC(=O)C(C)NC(=O)c1ccc(Br)cc1` (stereo not given), the EC50 is > 35 µM (inactive).

On to `COc1ccc(CNC(=S)N/N=C/c2ccc(O)c(OC)c2)cc1`, for which the EC50 was > 35 µM (inactive).

Take `CCOC(=O)N1CCN(C(=O)c2ccc(Cn3c(=S)[nH]c4cc(OCC)c(OCC)cc4c3=O)cc2)CC1`: the EC50 is 5.64 µM.

On to `COc1ccc(C(=O)NCCCOC(=O)c2ccc(OC)cc2)cc1`, for which the EC50 was > 35 µM (inactive).

Turning to `Cc1ccc(NC(=S)N(Cc2cccs2)Cc2cc3cccc(C)c3[nH]c2=O)cc1`, the EC50 is > 35 µM (inactive).

In the case of `O=C(O)c1ccccc1Nc1ccc([N+](=O)[O-])cc1C(=O)O`, the EC50 was > 35 µM (inactive).

For the molecule `Cc1ccccc1NC(=O)c1ccccc1O`, the EC50 was > 35 µM (inactive).

For the molecule `COC(=O)CC1C(=O)NCCN1C(=O)CSc1nnc(Nc2ccc(OC)cc2)s1` (stereo not given), the EC50 is > 35 µM (inactive).

Regarding `O=C(CCCc1ccccc1)Nc1ccccn1`, the EC50 was > 35 µM (inactive).

On to `O=c1c2ccccc2nc2c3ccccc3c(NCCN3CCOCC3)nn12`, for which the EC50 was > 35 µM (inactive).

For `CC(Oc1ccc2ccc(=O)oc2c1)C(=O)NCCN1CCOCC1` (stereo not given), the EC50 is > 35 µM (inactive).

Turning to `Oc1ccc(/C=N/NC(=S)NC2CC3CCC2C3)cc1` (stereo not given), the EC50 was > 35 µM (inactive).

For the molecule `CC(C(=O)Nc1ccccc1-c1ccccc1)N1CCN(C(=O)c2ccccc2)CC1` (stereo not given), the EC50 was > 35 µM (inactive).

Take `CCCC(=O)NC(c1ccc(Cl)cc1)c1ccc2cccnc2c1O` (stereo not given): the EC50 is 2.22 µM.

Turning to `COc1cccc(/C=N/Nc2ncnc3scc(-c4ccccc4)c23)c1O`, the EC50 was 1.27 µM.

On to `COc1ccc(S(=O)(=O)N2CCC(c3cc(-c4cccc5ccccc45)n[nH]3)CC2)cc1`, for which the EC50 was > 35 µM (inactive).

As for `CCOC(=O)C1(C)NC(c2ccc(OC)cc2OC)C2C(=O)N(CC)C(=O)C21` (stereo not given), the EC50 was > 35 µM (inactive).

With `CN(Cc1cccnc1)C(=O)c1cc(COc2ccc3ncccc3c2)on1`, the EC50 was > 35 µM (inactive).

As to `O=C(Cc1ccc(S(=O)(=O)N2CCOCC2)s1)Nc1ccc(S(=O)(=O)N2CCCCC2)cc1`, the EC50 was > 35 µM (inactive).

With `CCOC(=O)c1c(NC(=O)CCC(=O)O)sc2c1CCCCC2`, the EC50 is > 35 µM (inactive).

`Cc1nc(NCCc2ccccc2)c(C#N)c(C)c1[N+](=O)[O-]`: the EC50 is > 35 µM (inactive).

With `COc1cccc(C(=O)C2CCCN(Cc3ccc4nsnc4c3)C2)c1` (stereo not given), the EC50 was > 35 µM (inactive).

On to `C/C(=N\OCc1nc2ccccc2c(=O)n1/N=C/c1cc(C)cc([N+](=O)[O-])c1O)c1ccccc1`, for which the EC50 is > 35 µM (inactive).

As to `CC(C)CC(=O)NC(c1cccs1)c1ccc2cccnc2c1O` (stereo not given), the EC50 was 6.26 µM.
